{
  "source": "patent US20190015379A1",
  "about": "“USE OF DIANHYDROGALACTITOL AND ANALOGS AND DERIVATIVES THEREOF, TOGETHER WITH RADIATION, TO TREAT NON-SMALL-CELL CARCINOMA OF THE LUNG AND GLIOBLASTOMA MULTIFORME AND SUPPRESS PROLIFERATION OF CANCER STEM CELLS” (DelMar Pharmaceuticals, Inc., priority 2014, published 2019)",
  "key": {"[1]": {"system": "A549 human lung adenocarcinoma xenograft tumors", "assay": "A549 NSCLC xenograft tumor growth in Rag2 mice", "format": "in vivo, female Rag2 mice", "description": "The purpose of the study reported in this Example is to evaluate the activity of dianhydrogalactitol in in vivo models of drug-resistant NSCLC in comparison to other drugs, including cisplatin. Rag2 mice bearing subcutaneous human lung adenocarcinoma xenograft tumors of either TKI-resistant (H1975) or TKI-sensitive (A549) origin were treated.\nTwo human NSCLC cell lines, A549 (TKI-sensitive) and H1975 (TKI-resistant), were used as xenograft tumor models in female Rag2 mice. The mice were 6 to 8 weeks of age and weighed 18-23 grams. 10 mice were used per group.\nCisplatin was used in normal saline at a dose of 5 mg/kg. Administration was intravenous.\nDianhydrogalactitol was used in 0.9% sodium chloride for injection at 1.5 mg/kg to 6 mg/kg. Administration was intraperitoneal.\nTreatment was initiated at a tumor volume of 100 mm^3 to 150 mm^3.\nOn day 0, tumor cells were implanted subcutaneously into mice in a volume of 50 μL in Matrigel™ using a 28-gauge needle; injection of the tumor cells was in the back of the mice. Mice were randomly assigned to groups based on tumor volume.\nTumor growth was monitored by measuring tumor dimensions with calipers beginning on the first day of treatment. Tumor length and width measurements were obtained each Monday, Wednesday, and Friday. Tumor volumes were calculated according to the equation L×W^2/2 with the length (in mm) being defined as the longer axis of the tumor. Animals were weighed at the time of tumor measurement. Tumors were allowed to grow to a maximum of 800 mm^3 before termination."}, "[2]": {"system": "recurrent glioblastoma multiforme (GBM)", "assay": "Phase I/II dose-escalation study, tumor response in GBM patients", "format": "in vivo, human", "excerpt": "The methodology of the study reported in this Example is as follows: An open-label, single arm Phase I/II dose-escalation study designed to evaluate the safety, tolerability, pharmacokinetics and anti-tumor activity of dianhydrogalactitol in patients with: (i) histologically confirmed initial diagnosis of primary WHO Grade IV malignant GBM, now recurrent, or (ii) progressive secondary brain tumor, having failed standard brain radiotherapy, and with brain tumor progression after at least one line of systemic therapy. The study utilizes a 3+3 dose escalation design, until the MTD or the maximum specified dose is reached. Patients receive dianhydrogalactitol intravenously at the assigned dose on days 1, 2, and 3 of each 21-day treatment cycle. In Phase II, additional patients will be treated at the MTD (or other selected optimum Phase II dose) to measure tumor responses. All patients enrolled have previously been treated with surgery and/or radiation, if appropriate, and must have failed both bevacizumab and TMZ, unless contraindicated. For these studies, the following is a summary of the inclusion criteria: (1) Patients must be greater than or equal to 18 years old. (2) There is a histologically confirmed initial diagnosis of primary WHO Grade IV malignant glioma (glioblastoma), now recurrent, or progressive secondary brain tumor, the patient has failed standard brain radiotherapy, and the patient has brain tumor progression after at least one line of systemic therapy. […] (4) The patient must have a predicted life expectancy of at least 12 weeks. The following is a summary of the exclusion criteria: (1) There is a current history of neoplasm other than the entry diagnosis. Patients with previous cancers treated and cured with local therapy alone may be considered. (2) There is evidence of leptomeningeal spread of disease. […] (4) The patient had undergone prior treatment with intracerebral agents. […] (6) The patient is being administered concomitant medications that are strong inhibitors of cytochrome P450 and CYP3A up to 14 days before Cycle 1, Day 1 (pimozide, diltiazem, erythromycin, clarithromycin, and quinidine, and amiodarone up to 90 days before.\nEnrollment and evaluation of Cohort 7 (40 mg/m^2) is ongoing. Higher doses may be enrolled subject to completion of mandated safety observation period with Cohort 6 (30 mg/m^2). Patients enrolled present with refractory progressive GBM and a dire prognosis. […] The primary endpoint of this portion of the study is to determine a modernized dosing regimen for advancement to registration-directed clinical trials. […] In this design, it is not possible to perform a rigorous assessment of patient benefit due to slowed tumor growth. Tumor volume is assessed during the study based on RANO criteria. […] Outcomes analysis of cohort 6 is ongoing. These preliminary data support continued exploration of higher dose cohorts."}, "[3]": {"conditions": "dianhydrogalactitol 1.5 mg/kg i.p. (group 3)"}, "[4]": {"conditions": "dianhydrogalactitol 3 mg/kg i.p. (group 4)"}},
  "data": [
    {"substance": "dianhydrogalactitol", "values": [
      {"measurement": "day on which a mean tumor volume of 200 mm^3 was observed", "setting": "[1]; [3]", "result": 45, "unit": "days"},
      {"measurement": "day on which a mean tumor volume of 400 mm^3 was reached", "setting": "[1]; [3]", "result": 67, "unit": "days"},
      {"measurement": "tumor doubling time", "setting": "[1]; [3]", "result": 22},
      {"measurement": "number of animals remaining on study on day 70", "setting": "[1]; dianhydrogalactitol 1.5 mg/kg i.p. M, W, F for 3 weeks (group 3)", "result": "7/10"},
      {"measurement": "tumor growth delay compared to untreated controls", "setting": "[1]; dianhydrogalactitol 3 mg/kg i.p.", "result": 26, "unit": "days"},
      {"measurement": "day on which a mean tumor volume of 200 mm^3 was observed", "setting": "[1]; [4]", "result": 42, "unit": "days"},
      {"measurement": "day on which a mean tumor volume of 400 mm^3 was reached", "setting": "[1]; [4]", "result": 81, "unit": "days"},
      {"measurement": "tumor doubling time", "setting": "[1]; [4]", "result": 39},
      {"measurement": "number of animals remaining on study on day 70", "setting": "[1]; dianhydrogalactitol 3 mg/kg i.p. M, W, F for 3 weeks (group 4)", "result": "6/10"},
      {"measurement": "day on which a mean tumor volume of 200 mm^3 was observed", "setting": "[1]; dianhydrogalactitol 6 mg/kg i.p. (group 5)", "result": 54, "unit": "days"},
      {"measurement": "number of animals remaining on study on day 70", "setting": "[1]; dianhydrogalactitol 6 mg/kg i.p. (group 5; stopped after 3 doses)", "result": "8/10"},
      {"measurement": "tumor response in cohort 6", "setting": "[2]; 30 mg/m^2, one of two patients, after 1 cycle of treatment", "result": "stable disease"},
      {"measurement": "Tumor Response, PR (number of patients)", "setting": "[2]; GBM, n = 8", "result": "PR (1); SD (1)"},
      {"measurement": "Tumor Response, SD (number of patients)", "setting": "[2]; GBM, n = 8", "result": "PR (1); SD (1)"},
      {"measurement": "Tumor Response, Overall", "setting": "[2]; GBM, n = 8, prior Surgery/XRT/TMZ/BEV", "result": "Overall = 25%"},
      {"measurement": "MRI scan findings", "setting": "[2]; Patient #26, T=64 days versus T=0, after two cycles", "result": "Thick confluent regions of abnormal enhancement have diminished"}
    ]}
  ]
}
